In paper PMC5113778, “Fragment Linking and Optimization of Inhibitors of the Aspartic Protease Endothiapepsin: Fragment‐Based Drug Design Facilitated by Dynamic Combinatorial Chemistry” (Angewandte Chemie (International Ed. in English), 2016):

Experiments:
Format in all cases: biochemical
endothiapepsin [1] = molecular target: T1, endothiapepsin (Cryphonectria parasitica, UniProt P11838); test: fluorescence-based protease assay adapted from HIV protease assay; Ki presumably from IC50 (Cheng-Prusoff)
T1 construct: gene EAPA; mature active enzyme, monomer
T1 sequence (P11838 90-419): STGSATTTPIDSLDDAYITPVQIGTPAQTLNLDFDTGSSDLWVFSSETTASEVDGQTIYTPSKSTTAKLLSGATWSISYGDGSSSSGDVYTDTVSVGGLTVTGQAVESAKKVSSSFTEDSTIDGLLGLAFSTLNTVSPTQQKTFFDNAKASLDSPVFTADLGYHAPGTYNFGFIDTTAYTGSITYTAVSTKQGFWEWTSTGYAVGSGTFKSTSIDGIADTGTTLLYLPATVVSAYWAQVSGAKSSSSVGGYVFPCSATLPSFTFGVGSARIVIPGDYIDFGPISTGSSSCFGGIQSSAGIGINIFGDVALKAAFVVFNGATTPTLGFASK
Description: fluorescence-based protease assay adapted from HIV protease assay; Ki presumably from IC50 (Cheng-Prusoff) on endothiapepsin

endothiapepsin [2] = molecular target: T1, endothiapepsin; test: fluorescence-based protease assay adapted from HIV protease assay; crystal soaking
Description: fluorescence-based protease assay adapted from HIV protease assay; crystal soaking on endothiapepsin

endothiapepsin [3] = molecular target: T1, endothiapepsin; test: fluorescence-based protease assay adapted from HIV protease assay
Description: fluorescence-based protease assay adapted from HIV protease assay on endothiapepsin

Compound	Ki (endothiapepsin [1]) [nM]	IC50 (endothiapepsin [2]) [nM]	IC50 (endothiapepsin [3]) [nM]
N[C@@H](Cc1c[nH]c2ccccc12)C(=O)N/N=C/c1cccc(/C=N/NC(=O)[C@@H](N)Cc2c[nH]c3ccccc23)c1 [compound 13, bis-acylhydrazone 13]	25.4 ± 0.2	54 ± 0.5	–
N[C@@H](Cc1ccccc1)C(=O)N/N=C/c1cccc(/C=N/NC(=O)[C@@H](N)Cc2ccccc2)c1 [compound 16, bis-acylhydrazone 16]	980 ± 50	–	2100 ± 100
